The structures appear in SMILES notation. Values joined by “and” are separate entries in the source; they are usually repeats but may differ in a detail not shown here. Equal values may be shown once.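 Method: 48-hour compound exposure of cells in 96-well plates, five concentrations, linear interpolation of endpoints. GI50 marks 50% less growth. TGI: concentration producing complete growth inhibition.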

Among the test systems are HCT-116 colon; HS 578T breast; HT29 colon; MCF7 breast; SF-268 CNS; NCI/ADR-RES ovarian; PC-3 prostate; SK-OV-3 ovarian; IGROV1 ovarian; A549 NSCLC.
Common to all, as to assay: DTP human tumour cell line panel, 48 h

For `CC1=C2[C@@H](CC1)[C@]1(C)O[C@@](C(C)C)(C[C@H]1OC(=O)CO)[C@H]2OC(=O)C1CC1c1ccccc1` (some centres not stated), the GI50 in the experiment with HCT-116 colon was 17.7 µM; in the experiment on HS 578T breast, 0.0681 µM; in the experiment with HT29 colon it was 13.5 µM; with MCF7 breast, 8.98 µM; in the experiment on SF-268 CNS, 13 µM; with NCI/ADR-RES ovarian, 8.95 µM. In addition, the GI50 with PC-3 prostate was 7.36 µM; with SK-OV-3 ovarian, 16.4 µM; in the experiment on IGROV1 ovarian, 19.1 µM; with A549 NSCLC, 11.9 µM. The concentration for total growth inhibition (TGI) was found to be 33.2 µM with HCT-116 colon; 2.38 µM in the experiment on HS 578T breast; 28.3 µM with HT29 colon; 27.8 µM in the experiment on MCF7 breast; 27.9 µM in the experiment with SF-268 CNS; 30.8 µM in the experiment with NCI/ADR-RES ovarian. The TGI with PC-3 prostate was 21.6 µM; with SK-OV-3 ovarian, 30.7 µM; in the experiment with IGROV1 ovarian it was 46.7 µM; with A549 NSCLC, 25.9 µM.

With `COc1ccc(-c2nc(-c3ccc(C)cc3)cn3ccnc23)cc1`, the GI50 with HCT-116 colon was 2.61 µM; with HS 578T breast, 20.4 µM; in the experiment with MCF7 breast it was 3.05 µM; in the experiment on SF-268 CNS, 3.06 µM; in the experiment on NCI/ADR-RES ovarian, 2.16 µM; in the experiment with PC-3 prostate, 4.44 µM. The results for the GI50 in the experiment with SK-OV-3 ovarian, in the experiment on IGROV1 ovarian and in the experiment on A549 NSCLC were 33.5 µM, 2.43 µM and 3.97 µM, respectively. The TGI in the experiment with HCT-116 colon, in the experiment with HS 578T breast, in the experiment with MCF7 breast, with SF-268 CNS, in the experiment on NCI/ADR-RES ovarian and in the experiment with PC-3 prostate was over 50 µM in each case. The TGI in the experiment on SK-OV-3 ovarian, in the experiment on IGROV1 ovarian and in the experiment with A549 NSCLC was over 50 µM each time.

On to `CC(N)(Cc1c[nH]c2cccc(F)c12)C(=O)O` (configuration not stated), for which the GI50 in the experiment on HCT-116 colon is over 1000 µM; in the experiment on HS 578T breast, 786 µM; with HT29 colon, over 1000 µM; with MCF7 breast it was over 1000 µM; in the experiment on SF-268 CNS, over 1000 µM; with NCI/ADR-RES ovarian it was over 1000 µM. The GI50 in the experiment with PC-3 prostate was over 1000 µM; in the experiment with SK-OV-3 ovarian, 992 µM; in the experiment on IGROV1 ovarian, 364 µM; in the experiment with A549 NSCLC, over 1000 µM. The TGI in the experiment with HCT-116 colon, in the experiment with HS 578T breast, in the experiment on HT29 colon, in the experiment with MCF7 breast, with SF-268 CNS and in the experiment with NCI/ADR-RES ovarian was over 1000 µM each time. The concentration for total growth inhibition (TGI) in the experiment on PC-3 prostate, in the experiment with SK-OV-3 ovarian, in the experiment on IGROV1 ovarian and in the experiment with A549 NSCLC was over 1000 µM each time.

For the compound `Nc1ccc(C2=CC(c3ccc(Cl)cc3)N3C=CSC3=N2)cc1` (configuration not stated), the GI50 with HCT-116 colon is 1.66 µM; in the experiment with HS 578T breast, 23.5 µM; in the experiment on HT29 colon, 2.79 µM; in the experiment on MCF7 breast, 1.22 µM; with SF-268 CNS, 11.3 µM; in the experiment on NCI/ADR-RES ovarian it was 7.89 µM. Moreover, the GI50 in the experiment on PC-3 prostate was 8.8 µM; in the experiment on SK-OV-3 ovarian it was 5.07 µM; in the experiment with IGROV1 ovarian, 2.53 µM; in the experiment on A549 NSCLC, 3.68 µM. The TGI in the experiment on HCT-116 colon was 3.2 µM; with HS 578T breast, over 100 µM; in the experiment on HT29 colon, 6.98 µM; in the experiment on MCF7 breast, 4.52 µM; with SF-268 CNS it was 30.7 µM; in the experiment on NCI/ADR-RES ovarian it was over 100 µM. In addition, the TGI with PC-3 prostate is over 100 µM; in the experiment with SK-OV-3 ovarian it was 25.5 µM; with IGROV1 ovarian, 6.69 µM; in the experiment on A549 NSCLC it was 53.4 µM.

On to `O=C(/C=C\c1ccc([N+](=O)[O-])cc1)c1ccccc(=O)c1O`, for which the TGI in the experiment on HCT-116 colon came out at 2.35 µM; in the experiment on HS 578T breast it was 36.8 µM; in the experiment on HT29 colon, 3.85 µM; with MCF7 breast it was 2.64 µM; with SF-268 CNS, 37.3 µM; in the experiment on NCI/ADR-RES ovarian, 2.97 µM. Also, the TGI in the experiment on PC-3 prostate worked out at 9.84 µM; in the experiment with SK-OV-3 ovarian, 17.2 µM; in the experiment on IGROV1 ovarian, 4.16 µM; in the experiment on A549 NSCLC it was 11.9 µM.

Regarding `Nc1nc([Se])c2ncn(C3OC(CO)C(O)C3O)c2n1` (configuration not stated), the GI50 in the experiment with HCT-116 colon is 4 µM; in the experiment on HS 578T breast it was 4.71 µM; in the experiment with HT29 colon, 4.29 µM; with MCF7 breast, 4.09 µM; with SF-268 CNS it was 9.27 µM; in the experiment on NCI/ADR-RES ovarian it was 5.57 µM. Further, the GI50 with PC-3 prostate was 24.8 µM; in the experiment on SK-OV-3 ovarian, 6.96 µM; in the experiment on IGROV1 ovarian it was 25.9 µM; with A549 NSCLC it was 25.1 µM. In addition, the TGI in the experiment on HCT-116 colon is over 100 µM; in the experiment with HS 578T breast, over 100 µM; with HT29 colon, 82.9 µM; in the experiment on MCF7 breast, over 100 µM; with SF-268 CNS, over 100 µM; in the experiment on NCI/ADR-RES ovarian it was over 100 µM. Further, the TGI in the experiment with PC-3 prostate, in the experiment with SK-OV-3 ovarian, in the experiment with IGROV1 ovarian and with A549 NSCLC was over 100 µM each time.

With `Nc1ccc(C(=O)N/C(=C\c2cccc([N+](=O)[O-])c2)c2nc3[nH]c(=S)[nH]c(=O)c3[nH]2)cc1`, the total growth inhibition concentration (TGI) in the experiment on HCT-116 colon is over 100 µM; in the experiment on HS 578T breast, over 91.2 µM; with HT29 colon, over 100 µM; with MCF7 breast, over 100 µM; in the experiment on SF-268 CNS it was over 100 µM; in the experiment on NCI/ADR-RES ovarian, over 100 µM. Moreover, the TGI in the experiment with PC-3 prostate is over 100 µM; in the experiment with SK-OV-3 ovarian, 56.2 µM; in the experiment with IGROV1 ovarian, over 100 µM; with A549 NSCLC, over 100 µM.

As for `C=C/C=C/[C@@H](O)CC(=C)C[C@H]1OC2[C@H](C)[C@@H](OC(=O)C[C@H]3C[C@H](OC(C)=O)C[C@@]4(C[C@@](C)(O)C[C@H](CC(=C)[C@@H](C)[C@H](OC(C)=O)[C@H](C)C(=O)C[C@@H]5C[C@H](OC)CC6(C[C@@H](O)C[C@H](/C=C\CCC[C@H]7O[C@](O)(C=C[C@H]7C)[C@H]2O)O6)O5)O4)O3)[C@@H]1O`, the TGI in the experiment with HCT-116 colon is 0.0112 µM; in the experiment with HS 578T breast, 0.0082 µM; in the experiment on MCF7 breast, under 0.0025 µM; in the experiment on SF-268 CNS, 0.0413 µM and 0.277 µM; with NCI/ADR-RES ovarian, 0.164 µM; in the experiment on PC-3 prostate, over 25 µM. Also, the TGI with IGROV1 ovarian was under 0.0025 µM. Besides, the concentration for 50% growth inhibition (GI50) was 0.00177 µM with HS 578T breast; 0.0025 µM in the experiment on HT29 colon; under 0.0025 µM with MCF7 breast; 0.00406 µM and 0.0025 µM in the experiment on SF-268 CNS; 0.0025 µM in the experiment on PC-3 prostate; 0.000465 µM and 0.0025 µM with SK-OV-3 ovarian. In the experiment with IGROV1 ovarian, the 50% growth inhibitory concentration (GI50) was 0.00158 µM and < 0.0025 µM.

Usually GI50 stands for the concentration giving 50% growth inhibition. A word on the TGI: it is the concentration giving total growth inhibition. A high value points to less potent growth arrest.

The values are drawn from PubChem BioAssay (NCI).
